Patent publication US20080044491A1, “METAL-CONTAINING FORMULATIONS AND METHODS OF USE” (priority 2006, published 2008)
Where “and” joins values, the source holds several entries; their conditions need not be identical. Identical values can stand only once.

Columns and labels:
Ps. aeruginosa = test: Minimal bactericidal concentration (MBC) assay; format: cell-based, Pseudomonas aeruginosa; conditions: Ps. aeruginosa 27317 (ATCC type strain)
Description: (§1) Minimal bactericidal concentration (MBC) assay—Overnight-grown MIC plates, prepared as described in Example 16, were evaluated to determine the MIC. Culture was then sampled from wells at and near the MIC using sterile inoculating loops, and transferred to fresh MHA plates to determine if viable bacteria remained. […] The MBC was determined as the well in the MIC plate which contained the lowest concentration of silver yielding no bacterial growth on the MHA plate.

K. pneumoniae = test: Minimal bactericidal concentration (MBC) assay; format: cell-based, Klebsiella pneumoniae; conditions: K. pneumoniae NP403 (listed twice)
Description: as §1

[1] = test system: Mycobacterium tuberculosis H37Ra (ATCC 25177); format: cell-based
E. coli = test: Minimal bactericidal concentration (MBC) assay; format: cell-based, Escherichia coli
Description: as §1

Escherichia coli = test: MIC assay (microdilution); format: cell-based
Klebsiella pneumoniae = test: MIC assay (microdilution); format: cell-based; conditions: K. pneumoniae NP403 (listed twice)
Pseudomonas aeruginosa = test: MIC assay (microdilution); format: cell-based
Ser. marcescens = test: Minimal bactericidal concentration (MBC) assay; format: cell-based, Serratia marcescens
Description: as §1

Staphylococcus aureus = test: MIC assay (microdilution); format: cell-based
Shigella flexneri = test: MIC assay (microdilution); format: cell-based; conditions: Shigella flexneri ATCC 12022
Streptococcus pyogenes = test: MIC assay (microdilution); format: cell-based; conditions: lactate solutions, nanocrystalline silver = range for 12 samples
Staph epidermidis = test: Minimal bactericidal concentration (MBC) assay; format: cell-based, Staphylococcus epidermidis; conditions: Staph epidermidis 12228 (ATCC type strain)
Description: as §1

Serratia marcescens = test: MIC assay (microdilution); format: cell-based
[2] = test system: Staphylococcus epidermidis; test: MIC assay (microdilution); format: cell-based
Staph. aureus = test: Minimal bactericidal concentration (MBC) assay; format: cell-based, Staphylococcus aureus
Description: as §1

Streptococcus pneumoniae = test: MIC assay (microdilution); format: cell-based; conditions: lactate solutions, nanocrystalline silver = range for 12 samples
[3] = E. coli 8739 (ATCC type strain)
[4] = E. coli 43745 (ATCC type strain)
[5] = Ser. marcescens NP402 (listed twice)
[6] = Ser. marcescens NP408 (listed twice)
[7] = Staph. aureus 6538 (ATCC type strain)
[8] = Staph. aureus 700699 (ATCC type strain)

In the case of `O=[N+]([O-])[O-].[Ag+]` [AgNO3, silver nitrate], the MBC (Ps. aeruginosa) was 3 parts silver per million, the MBC (K. pneumoniae) was 6 parts silver per million and 3 parts silver per million and the “minimum inhibitory concentration (MIC)” value [1] was 2.5 μg/ml silver. For the same compound, the MBC (E. coli; [3]) was 0.4 parts silver per million, the MBC (E. coli; [4]) was 0.4 parts silver per million and the MIC (Escherichia coli; [3]) was 0.4 parts silver per million. For the same compound, the MIC (Escherichia coli; [4]) was 1 parts silver per million, the MIC (Escherichia coli; E. coli (ATCC), lactate solutions, nanocrystalline silver = range for 12 samples) was 3 µg/mL and the MIC (Klebsiella pneumoniae) was 6 parts silver per million. It also gave an MIC (Pseudomonas aeruginosa; P. aerug (ATCC), lactate solutions, nanocrystalline silver = range for 12 samples) of 3 µg/mL, an MIC (Pseudomonas aeruginosa; P. aerug. (clin.), lactate solutions, nanocrystalline silver = range for 12 samples) of 3 µg/mL and an MIC (Pseudomonas aeruginosa; P. aeruginosa isolate NP212, formulation type Lactate) of 2 ppm. The MIC (Pseudomonas aeruginosa; P. aeruginosa isolate NP212, formulation type Water/Lecithin) was 3 ppm, the MIC (Pseudomonas aeruginosa; P. aeruginosa isolate NP212, formulation type Water/PVA) was 3 ppm and the MIC (Pseudomonas aeruginosa; Ps. aeruginosa 9027 (ATCC type strain)) was 1 parts silver per million. The MIC (Pseudomonas aeruginosa; Ps. aeruginosa 27317 (ATCC type strain)) was 2 parts silver per million, the MBC (Ser. marcescens; [5]) was 6 parts silver per million and the MBC (Ser. marcescens; [6]) was 6 parts silver per million and 11 parts silver per million. The MIC (Staphylococcus aureus; S. aureus (ATCC), lactate solutions, nanocrystalline silver = range for 12 samples) was 11 µg/mL, the MIC (Staphylococcus aureus; S. aureus (clin.), lactate solutions, nanocrystalline silver = range for 12 samples) was 5 µg/mL and the MIC (Staphylococcus aureus; [7]) was 6 parts silver per million. For the same compound, the MIC (Staphylococcus aureus; [8]) was 3 parts silver per million, the MIC (Shigella flexneri; formulation type Lactate) was 2 ppm and the MIC (Shigella flexneri; formulation type Water/Lecithin) was 2 ppm. It also gave an MIC (Shigella flexneri; formulation type Water/PVA) of 1 ppm, an MIC (Streptococcus pyogenes; S. pyog (clin. 303)) of 3 µg/mL and an MIC (Streptococcus pyogenes; S. pyog (clin. 304)) of 5 µg/mL. For the same compound, the MBC (Staph epidermidis) was 3 parts silver per million, the MIC (Serratia marcescens; [5]) was 6 parts silver per million and the MIC (Serratia marcescens; [6]) was 6 parts silver per million and 11 parts silver per million. It also gave an MIC ([2]; S. epiderm (ATCC), lactate solutions, nanocrystalline silver = range for 12 samples) of 3 µg/mL, an MIC ([2]; Staph epidermidis 12228 (ATCC type strain)) of 3 parts silver per million and an MBC (Staph. aureus; [7]) of 6 parts silver per million. The MBC (Staph. aureus; [8]) was 6 parts silver per million, the MIC (Streptococcus pneumoniae; S. pneumo (clin 314)) was 11 µg/mL and the MIC (Streptococcus pneumoniae; S. pneumo (clin 315)) was 21 µg/mL.
